# pIC50: −log10 of the molar value.
# What was measured:
# [1] = biological target: ATR/ATRIP (Homo sapiens (Human), UniProt Q13535); assay: ATR/ATRIP kinase assay (TR-FRET, p53 Ser15 phosphorylation); type: biochemical; details: 0.5 μM ATP, 50 nM p53
# Description: ATR/ATRIP Kinase Assay—Measurement of ATR/ATRIP Inhibition
# The IC50 value was determined by an ATR/ATRIP enzymatic assay. The assay comprises two steps: the enzymatic reaction and the detection step. First, a mixture of ATR/ATRIP protein (Ataxia Telangiectasia and Rad3-related protein/ATR interacting protein), the compound in question at different concentrations, p53 as substrate protein and adenosine triphosphate (ATP) are incubated in assay buffer. ATR phosporylates p53 at Ser15 and other residues. The amount of phosphorylated p53 is then detected using specific antibodies and the TR-FRET assay technology.
# In detail: The ATR/ATRIP enzymatic assay is performed as a TR-FRET-(HTRF™, Cisbio Bioassays) based 384-well assay. In a first step, purified human recombinant ATR/ATRIP (human ATR, full length, GenBank ID: NM_001184.3, and human ATRIP, full length, GenBank ID AF451323.1, co-expressed in a mammalian cell line) is incubated in assay buffer for 15 minutes at 22° C. with test compound at different concentrations or without test compound (as a negative control). The assay buffer contains 25 mM HEPES pH 8.0, 10 mM Mg(CH3COO)2, 1 mM MnCl2, 0.1% BSA, 0.01% Brij® 35, and 5 mM dithiothreitol (DTT). An Echo 555 (Labcyte) is used for dispensing of compound solutions. Then, in a second step, purified human recombinant cmyc-tagged p53 (human p53, full length, GenBank ID: BC003596, expressed in Sf21 insect cells) and ATP are added and the reaction mixture is incubated for 25-35 minutes, typically 25 minutes, at 22° C. The pharmacologically relevant assay volume is 5 μl. The final concentrations in the assay during incubation of the reaction mixture are 0.3-0.5 nM, typically 0.3 nM, ATR/ATRIP, 50 nM p53, and 0.5 μM ATP. The enzymatic reaction is stopped by the addition of EDTA. The generation of phosphorylated p53 as a result of the ATR mediated reaction in the presence of ATP is detected by using specific antibodies [labeled with the fluorophores europium (Eu) as donor and d2 as acceptor (Cisbio Bioassays)] enabling FRET. For this purpose, 2 μl of antibody-containing stop solution (12.5 mM HEPES pH 8.0, 125 mM EDTA, 30 mM sodium chloride, 300 mM potassium fluoride, 0.006% Tween-20, 0.005% Brij® 35, 0.21 nM anti-phospho-p53(Ser15)-Eu antibody, 15 nM anti-cmyc-d2 antibody) are added to the reaction mixture. Following signal development for 2 h the plates are analyzed in an EnVision (PerkinElmer) microplate reader using the TRF mode with laser excitation. Upon excitation of the donor europium at 340 nm the emitted fluorescence light of the acceptor d2 at 665 nm as well as from the donor Eu at 615 nm are measured. The amount of phosphorylated p53 is directly proportional to the ratio of the amounts of emitted light i.e. the ratio of the relative fluorescence units (rfu) at 665 nm and 615 nm. Data are processed employing the Genedata Screener software. In particular, IC50 values are determined in the usual manner by fitting a dose-response curve to the data points using nonlinear regression analysis. • IC50=half maximal inhibitory concentration • ATP=Adenosine triphosphate • TR-FRET=Time-Resolved Fluorescence Resonance Energy Transfer • HTRF®=Homogeneous Time Resolved Fluorescence • HEPES=2-(4-(2-Hydroxyethyl)-1-piperazinyl)-ethanesulfonic acid • Mg(CH3COO)2=Magnesium acetate • MnCl2=Manganese(II)-chloride • BSA=Bovine Serum Albumin • EDTA=Ethylendiamine Tetraacetate • TRF=Time Resolved Fluorescence pCHK1 Cellular Assay
# [2] = test system: phosphorylation of Chk1 (Ser 345) in HT29 colon adenocarcinoma cells; assay: pCHK1 cellular assay; type: cell-based; details: Homo sapiens, HT-29, hydroxyurea 3 mM, 4 h
# From the text: Chk1 kinase acts downstream of ATR and has a key role in DNA damage checkpoint control. Activation of Chk1 involves phosphorylation of Ser317 and Ser345 (regarded as the preferential target for phosphorylation/activation by ATR) and occurs in response to blocked DNA replication and certain forms of genotoxic stress. Phosphorylation at Ser 345 serves to localize Chk1 to the nucleus following checkpoint activation.
# This assay measures a decrease in phosphorylation of Chk1 (Ser 345) in HT29 colon adenocarcinoma cells following treatment with compound and hydroxyurea (which promotes fork stalling because of dNTP depletion) and using an immunocytochemical procedure and high content imaging.
# For the assay HT29 cells are plated in culture medium (DMEM high Glucose (no phenol red), 2 mM Glutamax, 1 mM Pyruvate, 10% FCS into Greiner 384 well plates, black, μclear #781090 (2500 cells/well/30 μl) and incubated for at least 20 hours at 37° C., 10% CO2 and 90% rH. Diluted test compounds (1 nM-30 μM final) and hydroxyurea (3 mM final) are added simultaneously and cells are incubated for 4 h at 37° C. After fixation/prmeabilisation with 100% MeOH (−20° C. cold) and permeabilisation with 0.2% Triton X-100 a complete immunocytochemical procedure is performed using a specific anti-pChk1 antibody (Cell Signaling, #2348BF) and fluorescently labelled secondary antibody (Alexa Fluor® 488 goat anti-rabbit F(ab′)2 fragment, Invitrogen A11070) and parallel nuclear staining for cell counting.
# The nuclear localised pChk1 signal is detected on an ImageXpress Ultra confocal high content reader and reported as % positive cells (nuclei).
# Chain of ATR/ATRIP (Q13535 whole entry): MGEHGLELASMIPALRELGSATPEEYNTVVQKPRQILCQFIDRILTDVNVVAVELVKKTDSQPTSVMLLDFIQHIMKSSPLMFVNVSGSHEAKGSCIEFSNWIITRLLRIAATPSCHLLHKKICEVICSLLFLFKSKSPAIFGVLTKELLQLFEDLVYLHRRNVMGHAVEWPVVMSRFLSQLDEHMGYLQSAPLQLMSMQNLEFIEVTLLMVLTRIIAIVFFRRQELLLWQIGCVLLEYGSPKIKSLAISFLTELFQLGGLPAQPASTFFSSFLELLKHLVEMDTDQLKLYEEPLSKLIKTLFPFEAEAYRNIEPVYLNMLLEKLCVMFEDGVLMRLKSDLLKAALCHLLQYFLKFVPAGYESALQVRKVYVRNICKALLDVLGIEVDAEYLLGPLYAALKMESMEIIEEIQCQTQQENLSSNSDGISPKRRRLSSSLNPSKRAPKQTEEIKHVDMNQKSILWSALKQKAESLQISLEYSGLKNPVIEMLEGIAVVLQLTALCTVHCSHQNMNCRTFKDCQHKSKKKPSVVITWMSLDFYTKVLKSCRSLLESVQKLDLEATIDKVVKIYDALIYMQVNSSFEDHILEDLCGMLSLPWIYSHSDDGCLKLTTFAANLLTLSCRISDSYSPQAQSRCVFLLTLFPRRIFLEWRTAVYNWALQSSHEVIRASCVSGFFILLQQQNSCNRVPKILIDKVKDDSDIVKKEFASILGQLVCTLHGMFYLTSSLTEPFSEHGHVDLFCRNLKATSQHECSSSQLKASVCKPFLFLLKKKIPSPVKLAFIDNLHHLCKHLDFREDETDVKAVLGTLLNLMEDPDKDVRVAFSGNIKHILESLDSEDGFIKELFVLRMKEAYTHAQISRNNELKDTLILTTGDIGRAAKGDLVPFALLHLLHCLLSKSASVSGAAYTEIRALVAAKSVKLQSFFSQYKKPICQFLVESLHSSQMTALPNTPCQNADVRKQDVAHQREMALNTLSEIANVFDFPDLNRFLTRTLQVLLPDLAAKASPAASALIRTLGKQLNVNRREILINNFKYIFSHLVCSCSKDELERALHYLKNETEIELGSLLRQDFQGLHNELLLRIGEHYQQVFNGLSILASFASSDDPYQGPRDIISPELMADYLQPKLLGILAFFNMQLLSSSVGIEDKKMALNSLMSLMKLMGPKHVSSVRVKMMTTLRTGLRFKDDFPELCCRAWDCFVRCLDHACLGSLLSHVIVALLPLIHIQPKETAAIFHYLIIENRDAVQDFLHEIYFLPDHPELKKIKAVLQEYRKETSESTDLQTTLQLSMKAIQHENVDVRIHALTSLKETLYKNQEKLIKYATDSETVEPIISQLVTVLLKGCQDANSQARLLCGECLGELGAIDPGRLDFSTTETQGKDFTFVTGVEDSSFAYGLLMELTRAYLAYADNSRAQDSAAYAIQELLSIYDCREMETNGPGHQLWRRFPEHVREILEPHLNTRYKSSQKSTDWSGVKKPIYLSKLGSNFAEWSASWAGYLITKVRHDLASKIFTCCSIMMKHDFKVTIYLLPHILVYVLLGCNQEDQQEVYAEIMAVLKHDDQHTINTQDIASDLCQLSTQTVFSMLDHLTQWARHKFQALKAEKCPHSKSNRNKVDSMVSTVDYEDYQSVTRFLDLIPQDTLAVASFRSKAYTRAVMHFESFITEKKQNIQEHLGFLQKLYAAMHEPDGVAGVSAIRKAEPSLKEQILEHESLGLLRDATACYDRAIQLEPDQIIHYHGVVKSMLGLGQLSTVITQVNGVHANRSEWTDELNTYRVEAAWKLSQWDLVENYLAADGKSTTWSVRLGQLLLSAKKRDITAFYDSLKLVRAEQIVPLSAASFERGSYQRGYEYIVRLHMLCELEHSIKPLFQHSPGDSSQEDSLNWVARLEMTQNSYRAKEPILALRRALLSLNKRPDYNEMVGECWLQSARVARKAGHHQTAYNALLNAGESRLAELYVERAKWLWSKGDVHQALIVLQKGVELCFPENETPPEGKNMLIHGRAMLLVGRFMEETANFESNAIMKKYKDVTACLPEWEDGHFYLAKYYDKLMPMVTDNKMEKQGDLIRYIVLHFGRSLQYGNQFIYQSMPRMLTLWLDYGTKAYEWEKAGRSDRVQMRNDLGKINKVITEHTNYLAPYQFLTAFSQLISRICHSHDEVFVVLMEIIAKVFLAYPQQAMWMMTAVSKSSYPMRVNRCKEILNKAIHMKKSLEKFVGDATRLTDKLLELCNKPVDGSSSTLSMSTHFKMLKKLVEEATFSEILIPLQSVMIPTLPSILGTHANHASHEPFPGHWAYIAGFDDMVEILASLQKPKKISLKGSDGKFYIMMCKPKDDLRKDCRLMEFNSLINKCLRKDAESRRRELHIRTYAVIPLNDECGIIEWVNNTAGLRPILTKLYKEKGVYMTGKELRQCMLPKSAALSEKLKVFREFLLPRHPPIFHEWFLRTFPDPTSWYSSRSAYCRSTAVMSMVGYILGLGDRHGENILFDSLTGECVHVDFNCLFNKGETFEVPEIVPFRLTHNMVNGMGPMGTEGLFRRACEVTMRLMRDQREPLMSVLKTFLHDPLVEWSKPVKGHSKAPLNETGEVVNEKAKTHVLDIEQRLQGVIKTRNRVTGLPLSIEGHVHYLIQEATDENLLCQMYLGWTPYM
# Chain of ATR/ATRIP (Q8WXE1 whole entry partner): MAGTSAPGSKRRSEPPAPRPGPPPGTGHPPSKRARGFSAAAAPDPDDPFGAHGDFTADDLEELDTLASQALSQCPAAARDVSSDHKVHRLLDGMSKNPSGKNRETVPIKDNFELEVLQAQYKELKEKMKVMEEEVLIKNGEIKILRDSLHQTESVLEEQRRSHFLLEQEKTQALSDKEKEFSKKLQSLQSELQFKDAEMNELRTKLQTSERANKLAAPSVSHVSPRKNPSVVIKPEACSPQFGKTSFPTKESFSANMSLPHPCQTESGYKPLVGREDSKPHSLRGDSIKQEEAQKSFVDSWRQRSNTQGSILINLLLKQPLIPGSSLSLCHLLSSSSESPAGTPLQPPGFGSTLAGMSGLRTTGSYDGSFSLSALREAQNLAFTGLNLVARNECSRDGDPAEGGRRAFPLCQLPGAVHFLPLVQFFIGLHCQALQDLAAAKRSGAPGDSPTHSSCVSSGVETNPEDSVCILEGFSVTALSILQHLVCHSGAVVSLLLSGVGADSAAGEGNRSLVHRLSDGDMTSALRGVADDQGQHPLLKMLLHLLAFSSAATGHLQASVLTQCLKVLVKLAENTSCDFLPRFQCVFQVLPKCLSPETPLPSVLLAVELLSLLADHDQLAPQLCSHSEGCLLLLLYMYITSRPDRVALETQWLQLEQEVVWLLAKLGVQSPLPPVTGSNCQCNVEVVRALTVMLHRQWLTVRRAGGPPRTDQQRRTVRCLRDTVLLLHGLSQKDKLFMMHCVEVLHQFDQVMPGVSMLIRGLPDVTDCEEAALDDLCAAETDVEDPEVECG
Structure (SMILES),pIC50 [1],pIC50 [2]
"C[C@@H]1COCCN1c1ccc2c(n1)c(-c1ccn[nH]1)nn2Cc1ccccc1 [Compound 59, (3R)-4-[1-Benzyl-3-(1H-pyrazol-5-yl)-1H-pyrazolo[4,3-b]pyridin-5-yl]-3-methylmorpholine]",7.68,5.00 to 6.00
"Cc1nc(S(C)(=O)=O)ccc1-c1cc(N2CCOC[C@H]2C)nc2c(-c3cc[nH]n3)n[nH]c12 [Compound 12, 7-(6-Methanesulfonyl-2-methyl-pyridin-3-yl)-5-((R)-3-methyl-morpholin-4-yl)-3-(1H-pyrazol-3-yl)-1H-pyrazolo[4,3-b]pyridine]",9.10,6.00 to 7.00
"C[C@@H]1COCCN1c1ccc2c(n1)c(-c1cc[nH]n1)nn2-c1ccc(C#N)cc1 [Compound 60, 4-[5-[(3R)-3-Methylmorpholin-4-yl]-3-(1H-pyrazol-3-yl)-1H-pyrazolo[4,3-b]pyridin-1-yl]benzonitrile]",7.49,5.00 to 6.00
"C[C@@H]1COCCN1c1ccc2c(n1)c(-c1cc[nH]n1)nn2CC(C)(C)O [Compound 85, 2-Methyl-1-{5-[(3R)-3-methylmorpholin-4-yl]-3-(1H-pyrazol-3-yl)-1H-pyrazolo[4,3-b]pyridin-1-yl}propan-2-ol]",7.68,5.00 to 6.00
"CC(c1cc(N2CCOC[C@H]2C)nc2c(-c3cc[nH]n3)nn(C)c12)S(C)(=O)=O (stereo partly drawn) [Compound 89, (3R)-4-[7-(1-Methanesulfonylethyl)-1-methyl-3-(1H-pyrazol-3-yl)-1H-pyrazolo[4,3-b]pyridin-5-yl]-3-methylmorpholine]",9.05,5.00 to 6.00
"CNC(=O)c1cc(N2CCOC[C@H]2C)nc2c(-c3cc[nH]n3)n[nH]c12 [Compound 28, 5-((R)-3-Methyl-morpholin-4-yl)-3-(1H-pyrazol-3-yl)-1H-pyrazolo[4,3-b]pyridine-7-carboxylic acid methylamide]",8.28,6.00 to 7.00
"CC(C)Oc1cc(N2CCOC[C@H]2C)nc2c(-c3ccn[nH]3)nn(C)c12 [Compound 44, 7-Isopropoxy-1-methyl-5-((R)-3-methyl-morpholin-4-yl)-3-(2H-pyrazol-3-yl)-1H-pyrazolo[4,3-b]pyridine]",8.38,6.00 to 7.00
"C[C@@H]1COCCN1c1ccc2c(n1)c(-c1cc[nH]n1)nn2-c1cccc(S(C)(=O)=O)c1 [Compound 47, 1-(3-Methanesulfonyl-phenyl)-5-((R)-3-methyl-morpholin-4-yl)-3-(1H-pyrazol-3-yl)-1H-pyrazolo[4,3-b]pyridine]",7.05,5.00 to 6.00
"C[C@@H]1COCCN1c1cc(-c2cccnc2C(F)(F)F)c2c(n1)c(-c1cc[nH]n1)nn2C [Compound 66, (3R)-3-Methyl-4-[1-methyl-3-(1H-pyrazol-3-yl)-7-[2-(trifluoro-methyl)pyridin-3-yl]-1H-pyrazolo[4,3-b]pyridin-5-yl]morpholine]",8.72,> 8.00
"C[C@@H]1COCCN1c1ccc2c(n1)c(-c1cc[nH]n1)nn2-c1cccc(C#N)c1 [Compound 53, 3-[5-((3R)-3-Methyl-morpholin-4-yl)-3-(1H-pyrazol-3-yl)-1H-pyrazolo[4,3-b]pyridin-1-yl]-benzonitrile]",7.24,5.00 to 6.00
"C[C@@H]1COCCN1c1cc(C(=O)N(C)C)c2c(n1)c(-c1cc[nH]n1)nn2C [Compound 30, 1-Methyl-5-((R)-3-methyl-morpholin-4-yl)-3-(1H-pyrazol-3-yl)-1H-pyrazolo[4,3-b]pyridine-7-carboxylic acid dimethylamide]",7.82,6.00 to 7.00
"Cc1ccc(-c2cc(N3CCOC[C@H]3C)nc3c(-c4cc[nH]n4)n(C)nc23)cn1 [Compound 14, 2-Methyl-5-((R)-3-methyl-morpholin-4-yl)-7-(6-methyl-pyridin-3-yl)-3-(1H-pyrazol-3-yl)-2H-pyrazolo[4,3-b]pyridine]",7.00,5.00 to 6.00
"C[C@@H]1COCCN1c1ccc2c(n1)c(-c1cc[nH]n1)nn2CCc1ccncc1 [Compound 77, (3R)-3-Methyl-4-[3-(1H-pyrazol-3-yl)-1-[2-(pyridin-4-yl)ethyl]-1H-pyrazolo[4,3-b]pyridin-5-yl]morpholine]",7.24,5.00 to 6.00
"Cc1cccnc1-c1cc(N2CCOC[C@H]2C)nc2c(-c3cc[nH]n3)nn(C)c12 [Compound 62, (3R)-3-Methyl-4-[1-methyl-7-(3-methylpyridin-2-yl)-3-(1H-pyrazol-3-yl)-1H-pyrazolo[4,3-b]pyridin-5-yl]morpholine]",7.66,5.00 to 6.00
"C[C@@H]1COCCN1c1ccc2c(n1)c(-c1cc[nH]n1)nn2Cc1cccc(S(C)(=O)=O)c1 [Compound 57, (3R)-4-{1-[(3-Methanesulfonylphenyl)methyl]-3-(1H-pyrazol-3-yl)-1H-pyrazolo[4,3-b]pyridin-5-yl}-3-methylmorpholine]",6.82,5.00 to 6.00
"Cc1cc(-c2n[nH]c3c(-c4ccc(S(C)(=O)=O)nc4C)cc(N4CCOC[C@H]4C)nc23)[nH]n1 [Compound 13, (3R)-4-[7-(6-Methanesulfonyl-2-methylpyridin-3-yl)-3-(3-methyl-1H-pyrazol-5-yl)-1H-pyrazolo[4,3-b]pyridin-5-yl]-3-methylmorpholine]",8.85,6.00 to 7.00
"C[C@@H]1COCCN1c1cc(C(N)=O)c2[nH]nc(-c3cc[nH]n3)c2n1 [Compound 29, 5-((R)-3-Methyl-morpholin-4-yl)-3-(1H-pyrazol-3-yl)-1H-pyrazolo[4,3-b]pyridine-7-carboxylic acid amide]",8.27,5.00 to 6.00
"Cc1ncncc1-c1cc(N2CCOC[C@H]2C)nc2c(-c3cc[nH]n3)nn(C)c12 [Compound 87, (3R)-3-Methyl-4-[1-methyl-7-(4-methylpyrimidin-5-yl)-3-(1H-pyrazol-3-yl)-1H-pyrazolo[4,3-b]pyridin-5-yl]morpholine]",9.40,7.00 to 8.00
